This note sets out measurements from the NIST ThermoML archive (doi:10.1021/acs.jced.7b00078).

Numbers after ± are expanded uncertainties.

The conditions of the data set: Liquid; for mass density: 303.15 K, 101.33 kPa, Vibrating tube method; for vapor or sublimation pressure: Ebulliometric method (Recirculating still).

Consider `CCCO` [propan-1-ol], for which the mass density is on record as 795.54 ± 0.15 kg/m3. Further, the “vapor or sublimation pressure” value (347.65 K) came to 40 ± 0.15 kPa. Further, the “vapor or sublimation pressure” value (370.23 K) was determined as 101.33 ± 0.15 kPa.

On to `CCO` [ethanol], for which the mass density turned out to be 780.78 ± 0.15 kg/m3. In addition, under “329.63 K”, the “vapor or sublimation pressure” value is reported as 40 ± 0.15 kPa. Besides, under “351.51 K”, the “vapor or sublimation pressure” value is on record as 101.33 ± 0.15 kPa.

For the compound `CSSC` [2,3-dithiabutane], the mass density is listed as 1051.14 ± 0.14 kg/m3. In addition, under “353.42 K”, the “vapor or sublimation pressure” value was 40 ± 0.13 kPa. In addition, where the note is “382.87 K”, the “vapor or sublimation pressure” value is 101.33 ± 0.14 kPa.

As for `CO` [methanol], the mass density is on record as 781.81 ± 0.15 kg/m3. Besides, where the note is “315.8 K”, the “vapor or sublimation pressure” value is reported as 40 ± 0.15 kPa. Further, the “vapor or sublimation pressure” value (337.97 K) amounted to 101.33 ± 0.15 kPa.

As for `CCCCO` [butan-1-ol], the mass density was found to be 801.92 ± 0.14 kg/m3. For the same compound, where the note is “366.81 K”, the “vapor or sublimation pressure” value is 40 ± 0.14 kPa. In addition, the “vapor or sublimation pressure” value (390.72 K) came to 101.33 ± 0.14 kPa.

Broadly, the mass density is mass per unit of volume. One may read the vapor or sublimation pressure as the equilibrium pressure above the liquid or solid.
